Each structure is given as a SMILES string. Where “and” joins values, the source holds several entries; their conditions need not be identical. Identical values can stand only once.

In one series the test system is DRG neurons. The series can be described thus: DRG morphology and morphometry (neuron cell area). The note with it: WT mice; vincristine 1 mg/kg weekly, 4 weeks. It counts as in vivo, mouse.
The test system of series [1] is mice. To be noted: mouse, in vivo.
The subject of series [2] is mice. The series can be described thus: Nerve conduction studies (sciatic/digital and caudal nerve action potential amplitude and conduction velocity).
Series [3] is described as follows: Vincristine accumulation in DRG and liver (tissue to plasma AUC ratio). To be noted: OATP1B2-deficient vs WT mice; LC/MS/MS or MALDI-MS imaging.
Experimental: injection at a dose of 1 mg/kg. Whole blood samples were collected 0.08, 0.25, 0.5, 1, and 4 h, and livers were collected at the final time point.
specimens were stored at -80°C until further processing.
stainless steel bead (Qiagen) and processed for 4 min at 40 Hz. Finally, the beads were removed, and the homogenized samples were stored at -80°C until analysis by LC-MS/MS.
Pharmacokinetic parameters were calculated by non -compartmental analysis using Phoenix WinNonlin version 8.0 (Certara). Peak plasma concentration (C max) was determined by visual inspection of the data from the concentration-time curves. The linear trapezoidal rule was used to obtain the area under the plasma concentration-time curve (AUC), and drug levels in tissues were corrected for
Quantiva triple quadrupole mass spectrometer from Thermo Fisher Scientific was used for LC-MS/MS
analysis. An Accucore aQ column (150 × 2.1 mm, dp = 2.6 μm, Thermo Fisher Scientific) was protected
volume was 5.0 μL. The temperature of the autosampler rack was 4°C, and the temperature of the
column was maintained at 50°C. Mobile phase A consisted of water with 0.1% (v/v) formic acid and
mobile phase B consisted of acetonitrile: methanol (1:1) with 0.1% (v/v) formic acid. The total run time […]
Precursor molecular ions and product ions were recorded for confirmation and
quantification was 5 ng/mL. […]
For series [4], the system named is mice. The series can be described thus: Thermal hyperalgesia, Hargreaves test (paw withdrawal latency).
In a further series the test system is THP1. The series can be described thus: Cytotoxicity of vincristine with or without nilotinib, MTT assay, THP1. To be noted: individual replicates. It counts as cell-based, human. (In general: Tetrazolium dyes change colour on reduction, which living cells bring about.)
A further series deals with mMATE1 (Mus musculus, UniProt Q8K0H1). The series can be described thus: Substrate uptake in HEK293 cells overexpressing mMATE1. To be noted: HEK293 mouse MATE1.
Sequence of mMATE1 (Q8K0H1 whole entry): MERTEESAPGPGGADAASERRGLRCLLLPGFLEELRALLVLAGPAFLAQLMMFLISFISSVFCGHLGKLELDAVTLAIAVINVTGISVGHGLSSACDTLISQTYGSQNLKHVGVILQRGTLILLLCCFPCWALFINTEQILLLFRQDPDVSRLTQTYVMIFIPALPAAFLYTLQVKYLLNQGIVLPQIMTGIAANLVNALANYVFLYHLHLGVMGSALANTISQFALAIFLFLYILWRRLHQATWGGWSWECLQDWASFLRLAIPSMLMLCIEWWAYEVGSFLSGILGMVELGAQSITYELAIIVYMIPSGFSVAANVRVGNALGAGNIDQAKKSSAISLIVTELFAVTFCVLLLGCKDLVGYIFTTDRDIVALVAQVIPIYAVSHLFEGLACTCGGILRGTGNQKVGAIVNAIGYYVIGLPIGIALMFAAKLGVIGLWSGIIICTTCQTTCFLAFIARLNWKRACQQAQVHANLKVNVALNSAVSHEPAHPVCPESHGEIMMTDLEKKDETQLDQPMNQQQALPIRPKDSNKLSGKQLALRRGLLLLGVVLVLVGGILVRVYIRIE
For another series, the target named is rOCT1 (Rattus norvegicus, UniProt Q63089). The series can be described thus: Vincristine uptake screen, HeLa cells overexpressing rOCT1. It counts as in vitro ADME. How it is done:
(§1) Relative uptake is expressed as percentage change compared with empty vector controls (n = 4–14 per group). […] Human OATP1B1 and OATP1B3 transporter–overexpressed cells were used as positive controls; empty vector controls were used as the negative control. […] Mechanical allodynia (C), thermal hyperalgesia (D), and sciatic nerve maximal action potential amplitudes (E) are expressed as percentage change relative to baseline values (n = 6–8 per group). Statistical analysis was performed using a 2-way ANOVA with Bonferroni’s post hoc test. **P < 0.01, ***P < 0.001, ****P < 0.0001, compared with baseline values. […] Data are shown as mean ± SEM. […]
(§2) transfected with transporters of interest, including hOAT1, hOAT3, hOAT4, hOATP1A2, hOATP3A1, hOATP4A1, hOATP5A1, hOATP1C1, hOATP1B1, hOATP1B3, hOATP2B1, hOCT1, hOCT2, hOCTN1, hOCTN2, hASBT, hNTCP, hNPT1, hMATE1, hOSTα/β, hPEPT1, hPEPT2, rOatp1a1, rOatp1a4, rOatp1a5, rOatp1b2, rNtcp, rAsbt, rOat1, and rOct1. Cells were transfected with expression plasmid or vector control lacking any insert using Lipofectin reagent (Invitrogen). Sixteen hours thereafter, cells were washed with transport media (OPTIMEM, Invitrogen) and treated with radiolabeled drug. […] The cellular radioactivity was quantified by liquid scintillation counting as described above. […]

Another series has as its target hOATP3A1 (Homo sapiens, UniProt Q9UIG8). Briefly: Vincristine uptake screen, HeLa cells overexpressing hOATP3A1. It counts as in vitro ADME. How it is done:
as §1, §2

A further series deals with hOATP4A1 (Homo sapiens, UniProt Q96BD0). Briefly: Vincristine uptake screen, HeLa cells overexpressing hOATP4A1. The class given is in vitro ADME. The procedure:
as §1, §2

Setting [5] is: KO (OATP1B2-/-) mice, vincristine 1 mg/kg weekly i.p. + vehicle pretreatment, 4 weeks.
Where [6] appears, read: OATP1B2(-/-) mice, vincristine 1 mg/kg weekly, Week 4.

Sequence of hOATP3A1 (Q9UIG8 whole entry): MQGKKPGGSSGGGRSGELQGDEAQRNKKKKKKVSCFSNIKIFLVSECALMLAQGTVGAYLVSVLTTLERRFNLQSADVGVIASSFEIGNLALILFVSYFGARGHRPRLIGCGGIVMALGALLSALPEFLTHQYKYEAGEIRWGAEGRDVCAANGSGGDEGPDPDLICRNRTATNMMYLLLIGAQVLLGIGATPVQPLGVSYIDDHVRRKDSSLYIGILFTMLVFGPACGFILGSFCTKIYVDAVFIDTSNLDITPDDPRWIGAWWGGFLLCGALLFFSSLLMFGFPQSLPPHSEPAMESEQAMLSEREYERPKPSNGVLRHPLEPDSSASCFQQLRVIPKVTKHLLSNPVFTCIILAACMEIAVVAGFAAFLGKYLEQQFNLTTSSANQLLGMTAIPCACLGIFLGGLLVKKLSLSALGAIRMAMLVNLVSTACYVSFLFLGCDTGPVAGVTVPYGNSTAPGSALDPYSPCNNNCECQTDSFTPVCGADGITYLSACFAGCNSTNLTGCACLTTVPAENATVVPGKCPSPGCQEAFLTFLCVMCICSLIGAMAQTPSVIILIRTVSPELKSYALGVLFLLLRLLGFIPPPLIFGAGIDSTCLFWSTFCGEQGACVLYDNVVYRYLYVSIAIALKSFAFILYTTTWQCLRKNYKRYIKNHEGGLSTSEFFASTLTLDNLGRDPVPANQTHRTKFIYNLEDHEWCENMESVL
Sequence of rOCT1 (Q63089 whole entry): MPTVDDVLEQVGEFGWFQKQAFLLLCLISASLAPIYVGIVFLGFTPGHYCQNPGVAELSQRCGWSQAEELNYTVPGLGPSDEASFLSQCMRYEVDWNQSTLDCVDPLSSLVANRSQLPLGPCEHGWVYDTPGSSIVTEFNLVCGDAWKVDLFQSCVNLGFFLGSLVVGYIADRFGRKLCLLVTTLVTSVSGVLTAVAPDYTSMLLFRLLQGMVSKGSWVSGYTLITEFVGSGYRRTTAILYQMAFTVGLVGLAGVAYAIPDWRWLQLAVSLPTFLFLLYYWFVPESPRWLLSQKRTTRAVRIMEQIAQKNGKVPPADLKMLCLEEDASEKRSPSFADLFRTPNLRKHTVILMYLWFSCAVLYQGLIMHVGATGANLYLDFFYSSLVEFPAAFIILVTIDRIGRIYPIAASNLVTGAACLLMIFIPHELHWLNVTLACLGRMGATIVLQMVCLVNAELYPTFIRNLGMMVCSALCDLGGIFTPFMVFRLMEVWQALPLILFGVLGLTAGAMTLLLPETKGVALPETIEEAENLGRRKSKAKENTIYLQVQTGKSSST
Sequence of hOATP4A1 (Q96BD0 whole entry): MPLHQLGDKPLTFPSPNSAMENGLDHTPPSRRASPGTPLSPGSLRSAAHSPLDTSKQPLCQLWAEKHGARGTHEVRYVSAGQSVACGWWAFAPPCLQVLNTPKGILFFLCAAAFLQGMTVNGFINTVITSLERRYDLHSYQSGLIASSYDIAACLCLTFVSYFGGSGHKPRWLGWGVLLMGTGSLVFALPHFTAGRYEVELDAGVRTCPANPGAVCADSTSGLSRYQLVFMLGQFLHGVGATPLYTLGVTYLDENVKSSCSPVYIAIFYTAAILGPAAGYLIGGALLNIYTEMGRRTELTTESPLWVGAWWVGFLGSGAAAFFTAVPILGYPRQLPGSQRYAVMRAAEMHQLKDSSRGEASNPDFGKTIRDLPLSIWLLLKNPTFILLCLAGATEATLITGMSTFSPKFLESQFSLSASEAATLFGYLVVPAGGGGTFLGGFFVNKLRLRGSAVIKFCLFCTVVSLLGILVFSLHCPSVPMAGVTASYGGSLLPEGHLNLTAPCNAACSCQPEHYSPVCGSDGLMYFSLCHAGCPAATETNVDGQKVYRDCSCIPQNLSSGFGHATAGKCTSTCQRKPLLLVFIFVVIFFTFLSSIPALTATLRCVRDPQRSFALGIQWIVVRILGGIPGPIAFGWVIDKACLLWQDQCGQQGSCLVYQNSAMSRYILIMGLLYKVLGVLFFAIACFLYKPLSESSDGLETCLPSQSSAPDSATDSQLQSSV
Experimental for mMATE1: on OATP1B1, OATP1B3, or OATP1B2 function was evaluated using EβG (Axxora LLC) as the
transfected with transporters of interest, including hOAT1, hOAT3, hOAT4, hOATP1A2, hOATP3A1, hOATP4A1, hOATP5A1, hOATP1C1, hOATP1B1, hOATP1B3, hOATP2B1, hOCT1, hOCT2, hOCTN1, hOCTN2, hASBT, hNTCP, hNPT1, hMATE1, hOSTα/β, hPEPT1, hPEPT2, rOatp1a1, rOatp1a4, rOatp1a5, rOatp1b2, rNtcp, rAsbt, rOat1, and rOct1. Cells were transfected with expression plasmid or vector control lacking any insert using Lipofectin reagent (Invitrogen). Sixteen hours thereafter, cells were washed with transport media (OPTIMEM, Invitrogen) and treated with radiolabeled drug. At various time intervals, cells were washed three times with ice-cold PBS and then lysed with 1% sodium dodecyl sulfate. The cellular radioactivity was quantified by liquid scintillation counting as described above. Similar analyses were performed in HEK293 cells transfected with hOATP1A2, hOATP1C1, mMATE1, and hMATE1, with cells seeded in poly lysine pre-coated 12-well plates. For hOATP1A2 and hOATP1C1, transient transfections were performed with either an empty vector, OATP1A2, or OATP1C1 using Lipofectamine 2000 according to the manufacturers protocol (Invitrogen).

By IC50 is commonly meant the concentration that gives 50% inhibition. With `CC[C@]1(O)C[C@H]2CN(CCc3c([nH]c4ccccc34)[C@@](C(=O)OC)(c3cc4c(cc3OC)N(C=O)[C@H]3[C@@](O)(C(=O)OC)[C@H](OC(C)=O)[C@]5(CC)C=CCN6CC[C@]43[C@@H]65)C2)C1` [Vincristine, vincristine], in the series on DRG neurons, the “Cell size of DRG neurons” value is listed as “reduction in cell size of DRG neurons”. The “Protection against treatment-related mechanical allodynia by OATP1B2 deficiency” value in the series with mice [1] is “protection against treatment-related mechanical allodynia was only observed”. Further, the Sciatic nerve amplitude in the series on mice [2] (setting [5]) was 107.5 %Δ from baseline and 81.9 %Δ from baseline and 90.9 %Δ from baseline and 97.4 %Δ from baseline and 87.3 %Δ from baseline and 91.9 %Δ from baseline and 109.9 %Δ from baseline; with mice [2] (setting [6]), 90.9 %Δ from baseline and 97.4 %Δ from baseline and 87.3 %Δ from baseline and 91.9 %Δ from baseline and 109.9 %Δ from baseline and 107.5 %Δ from baseline and 81.9 %Δ from baseline. For the same compound, the “Uptake of vincristine in liver and whole DRG samples” value in [3] was “decreased uptake of vincristine”. Further, the “Paw withdrawal latency (%Δ from baseline)” value with mice [4] (setting [5]) was 115.4 %Δ from baseline and 102.8 %Δ from baseline and 99.5 %Δ from baseline and 93.2 %Δ from baseline and 105.4 %Δ from baseline and 88 %Δ from baseline and 77.4 %Δ from baseline; with mice [4] (setting [6]) it was 94.3 %Δ from baseline and 92.7 %Δ from baseline and 101.2 %Δ from baseline and 102.2 %Δ from baseline and 111.0 %Δ from baseline and 84.6 %Δ from baseline and 112.1 %Δ from baseline; with mice [4] (WT mice, vincristine 1 mg/kg weekly i.p. + vehicle pretreatment, 4 weeks), 66.8 %Δ from baseline and 70.6 %Δ from baseline and 94.2 %Δ from baseline and 54.6 %Δ from baseline and 68.3 %Δ from baseline and 64.2 %Δ from baseline and 82.5 %Δ from baseline; in the series with mice [4] (Wild-type mice, vincristine 1 mg/kg weekly, Week 4), 61.8 %Δ from baseline and 39.1 %Δ from baseline and 56.0 %Δ from baseline and 42.8 %Δ from baseline and 56.3 %Δ from baseline and 55.6 %Δ from baseline. The IC50 is 0.011 µM in the series with THP1 (Homo sapiens, THP-1, THP1 cells, vincristine + 1μM Nilotinib); 0.0154 µM with THP1 (Homo sapiens, THP-1, THP1 cells, vincristine alone); 14.4 nM (2×) and 15.4 nM and 15.1 nM and 14.6 nM and 10.5 nM and 10.2 nM and 16.9 nM in the series with THP1 (THP1 cells, vincristine alone). Also, the “Contribution of transporter to cellular uptake of vincristine” value on mMATE1 is “do not appreciably contribute to the cellular uptake of vincristine”. For the same compound, the “Vincristine uptake (% of vector control)” value at rOCT1 is 113.00 % of vector control and 108.00 % of vector control and 138.00 % of vector control and 121.00 % of vector control; at hOATP3A1 it was 104.00 % of vector control and 96.00 % of vector control and 76.00 % of vector control and 101.00 % of vector control and 79.00 % of vector control and 120.00 % of vector control and 100.00 % of vector control and 111.00 % of vector control; on hOATP4A1 it was 134.00 % of vector control and 105.00 % of vector control and 130.00 % of vector control and 116.00 % of vector control and 108.00 % of vector control and 117.00 % of vector control and 144.00 % of vector control and 140.00 % of vector control.
